The nature of experiment [1]: Binding affinity to N,N'-Ac2-L-Lys-D-Ala-D-Ala model of cell wall ligand by UV-difference assay.
The test system of another experiment is Staphylococcus aureus. Put plainly: Antimicrobial activity against vancomycin-sensitive Staphylococcus aureus ATCC 25923 after 24 hrs. It counts as functional. The conditions noted are these: ATCC 25923, 24 h.
A short description of experiment [2]: Binding affinity to N,N'-Ac2-L-Lys-D-Ala-Gly model of cell wall ligand by UV-difference assay.
Experiment [3] in a line: Binding affinity to N,N'-Ac2-L-Lys-D-Ala-D-Ser model of cell wall ligand by UV-difference assay.
The nature of experiment [4]: Binding affinity to N,N'-Ac2-L-Lys-D-Ala-D-Phe model of cell wall ligand by UV-difference assay.

SMILES strings stand for the structures. ≈ marks a conversion by molar mass, not a printed value.

For orientation: MIC means the lowest concentration that inhibits growth of the organism. Turning to `CN[C@H](CC(C)C)C(=O)N[C@H]1C(=O)N[C@@H](CC(N)=O)C(=O)N[C@H]2C(=O)N[C@H]3C(=O)N[C@H](C(=O)N[C@H](C(=O)O)c4cc(O)cc(O)c4-c4cc3ccc4O)[C@H](O)c3ccc(cc3)Oc3cc2cc(c3O)Oc2ccc(cc2)[C@H]1O`, the Ka in experiment [1] was 0.18 ×10⁵ /M. The same compound registered an MIC with Staphylococcus aureus of 20 µg/mL (≈ 18.6 µM).

In the case of `CN[C@H](CC(C)C)C(=O)N[C@H]1C(=O)N[C@@H](CC(N)=O)C(=O)N[C@H]2C(=O)N[C@H]3C(=O)N[C@H](C(=O)N[C@H](C(=O)O)c4cc(O)cc(O)c4-c4cc3ccc4O)[C@H](O)c3ccc(cc3)Oc3cc2cc(c3O)Oc2ccc(cc2Cl)[C@H]1O`, the Ka was 0.49 ×10⁴ /M in experiment [2], 4 ×10³ /M in experiment [3], 0.38 ×10⁵ /M in experiment [1] and 9 ×10² /M in experiment [4]. The same compound showed an MIC in the experiment with Staphylococcus aureus of 10 µg/mL (≈ 9.01 µM).

Consider `CN[C@H](CC(C)C)C(=O)N[C@H]1C(=O)N[C@@H](CC(N)=O)C(=O)N[C@H]2C(=O)N[C@H]3C(=O)N[C@H](C(=O)N[C@H](C(=O)O)c4cc(O)cc(O)c4-c4cc3ccc4O)[C@H](O)c3ccc(c(Cl)c3)Oc3cc2cc(c3O)Oc2ccc(cc2Cl)[C@H]1O` [VANCOMYCIN AGLYCON], for which the Ka in experiment [2] worked out at 1 ×10⁴ /M; in experiment [3], 3.3 ×10³ /M; in experiment [1] it was 1.4 ×10⁵ /M; in experiment [4], 9.1 ×10² /M. In addition, the MIC against Staphylococcus aureus was 1.25 µg/mL (≈ 1.09 µM).

For `CN[C@H](CC(C)C)C(=O)N[C@H]1C(=O)N[C@@H](CC(N)=O)C(=O)N[C@H]2C(=O)N[C@H]3C(=O)N[C@H](C(=O)N[C@H](C(=O)O)c4cc(O)cc(O)c4-c4cc3ccc4O)[C@H](O)c3ccc(c(Cl)c3)Oc3cc2cc(c3O[C@@H]2O[C@H](CO)[C@@H](O)[C@H](O)[C@H]2O[C@H]2C[C@](C)(N)[C@H](O)[C@H](C)O2)Oc2ccc(cc2Cl)[C@H]1O` [VANCOMYCIN], the Ka in experiment [1] came out at 1.8 ×10⁵ /M. In the experiment with Staphylococcus aureus, this compound displayed an MIC of 1.25 µg/mL (≈ 0.863 µM).

The record behind these values is ChEMBL document CHEMBL2413067, “Investigation into the functional impact of the vancomycin C-ring aryl chloride” (2013).
